# Data published in patent publication US20240158348A1, “HERBICIDAL CYCLIC AMIDES N-SUBSTITUTED WITH A HALOALKYLSULFONYLANILIDE GROUP” (FMC Corporation, priority 2021, published 2024).
# Experiments:
# Format in all cases: in vivo
# [1] = test system: foxtail, giant (giant foxtail, Setaria faberi); assay: Test C postemergence, giant foxtail
# [2] = test system: galium (catchweed bedstraw, Galium aparine); assay: Test C postemergence, galium
# [3] = test system: soybean (Glycine max); assay: Test C postemergence, soybean
# [4] = test system: oat, wild (wild oat, Avena fatua); assay: Test C postemergence, wild oat
# [5] = test system: oat, wild (wild oat, Avena fatua); assay: Test C preemergence, wild oat; conditions: 0 is no effect, 100 is complete control
# Summary of the method: (§1)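 Herbicidal effect was estimated visually on a 0–100 scale 10 or 12 days after spraying. Formulation: non-phytotoxic solvent mixture with surfactant. Timing: directed soil spray after sowing, or postemergence on seedlings bearing one or two leaves.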
# [6] = test system: wheat (Triticum aestivum); assay: Test C preemergence, wheat; conditions: 0 is no effect, 100 is complete control
# [7] = test system: foxtail, giant (giant foxtail, Setaria faberi); assay: Test C preemergence, giant foxtail; conditions: 0 is no effect, 100 is complete control
# Summary of the method: as §1
# [8] = test system: corn (Zea mays); assay: Test C preemergence, corn; conditions: 0 is no effect, 100 is complete control
# Summary of the method: (§2)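 Plants grown in a sand and loam soil blend received the formulated test chemicals either as a preemergence soil-directed spray or postemergence at 2 to 10 cm height. After 10 or 12 greenhouse days, injury was assessed visually, with 100 meaning complete control.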
# [9] = test system: ragweed (common ragweed, Ambrosia artemisiifolia); assay: Test C postemergence, ragweed
# Summary of the method: as §1
# [10] = test system: pigweed, palmer (palmer amaranth, Amaranthus palmeri); assay: Test C preemergence, palmer amaranth; conditions: 0 is no effect, 100 is complete control
# Summary of the method: as §1
# [11] = test system: ragweed (common ragweed, Ambrosia artemisiifolia); assay: Test C preemergence, ragweed; conditions: 0 is no effect, 100 is complete control
# Summary of the method: as §2
# [12] = test system: blackgrass (Alopecurus myosuroides); assay: Test C postemergence, blackgrass; conditions: 31 g ai/ha Postemergence; visual injury, 0 to 100 scale (0 no effect, 100 complete control)
# Summary of the method: as §1
# [13] = test system: pigweed, palmer (palmer amaranth, Amaranthus palmeri); assay: Test C postemergence, palmer amaranth
# Summary of the method: as §1
# [14] = test system: sedge, umbrella (small-flower umbrella sedge, Cyperus difformis); assay: Test D flooded paddy test, umbrella sedge; design: key: 0 = no effect, 100 = complete control; conditions: 250 g ai/ha, Flood; applied to paddy water at 2-leaf stage; visual rating after 13 days; scale 0 (no effect) to 100 (complete control)
# Summary of the method: (§3)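 Pots holding 2-leaf-stage plants were flooded 3 cm deep and dosed via the water, which stayed at that level. After 13 greenhouse days, injury was scored visually against untreated controls, 0 (none) to 100 (complete control); a dash marks no test result.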
# [15] = test system: wheat (Triticum aestivum); assay: Test C postemergence, wheat
# Summary of the method: as §1
# [16] = test system: soybean (Glycine max); assay: Test C preemergence, soybean; conditions: 0 is no effect, 100 is complete control
# Summary of the method: as §1
# [17] = test system: kochia (Bassia scoparia); assay: Test C preemergence, kochia; conditions: 0 is no effect, 100 is complete control
# Summary of the method: as §1
# [18] = test system: blackgrass (Alopecurus myosuroides); assay: Test C postemergence, blackgrass; conditions: 125 g ai/ha Postemergence; 0 is no effect, 100 is complete control
# [19] = test system: horseweed (Erigeron canadensis); assay: Test C postemergence, horseweed
# Summary of the method: as §1
# [20] = test system: goosegrass (Eleusine indica); assay: Test C preemergence, goosegrass; conditions: 0 is no effect, 100 is complete control
# Summary of the method: as §2
# [21] = test system: barnyardgrass (Echinochloa crusgalli); assay: Test D flooded paddy test, barnyardgrass; design: key: 0 = no effect, 100 = complete control; conditions: 250 g ai/ha, Flood; applied to paddy water at 2-leaf stage; visual rating after 13 days; scale 0 (no effect) to 100 (complete control)
# Summary of the method: as §3
# [22] = test system: kochia (Bassia scoparia); assay: Test C postemergence, kochia
# Summary of the method: as §1
# [23] = test system: blackgrass (Alopecurus myosuroides); assay: Test C preemergence, blackgrass; conditions: 0 is no effect, 100 is complete control
# Summary of the method: as §1
# [24] = test system: rice (Oryza sativa); assay: Test D flooded paddy test, rice; design: key: 0 = no effect, 100 = complete control; conditions: 250 g ai/ha, Flood; applied to paddy water at 2-leaf stage; visual rating after 13 days; scale 0 (no effect) to 100 (complete control)
# Summary of the method: as §3
# [25] = test system: corn (Zea mays); assay: Test C postemergence, corn
# [26] = test system: ryegrass, Italian (Italian ryegrass, Lolium multiflorum); assay: Test C preemergence, Italian ryegrass; conditions: 0 is no effect, 100 is complete control
# Summary of the method: as §1
# [27] = test system: ducksalad (Heteranthera limosa); assay: Test D flooded paddy test, ducksalad; design: key: 0 = no effect, 100 = complete control; conditions: 250 g ai/ha, Flood; applied to paddy water at 2-leaf stage; visual rating after 13 days; scale 0 (no effect) to 100 (complete control)
# Summary of the method: as §3
# [28] = test system: goosegrass (Eleusine indica); assay: Test C postemergence, goosegrass
# Summary of the method: as §1
# [29] = test system: ryegrass, Italian (Italian ryegrass, Lolium multiflorum); assay: Test C postemergence, Italian ryegrass
# Summary of the method: as §1
# [30] = 31 g ai/ha Postemergence, visual injury, 0 to 100 scale (0 no effect, 100 complete control)
# [31] = 125 g ai/ha Postemergence, 0 is no effect, 100 is complete control
smiles,measurement,setting,value
Cc1cc(C)c(N(C(=O)OCC(C)C)S(=O)(=O)C(F)(F)F)cc1N1CCC(OC2CC2)C1=O (stereo not shown) [Compound 21],"Foxtail, Giant plant response rating",[1]; [30],40
same,"Plant response rating (0 to 100 scale), Foxtail, Giant",[1]; [31],90
same,Galium plant response rating,[2]; [30],100
same,"Plant response rating (0 to 100 scale), Galium",[2]; [31],100
same,Soybean plant response rating,[3]; [30],60
same,"Plant response rating (0 to 100 scale), Soybean",[3]; [31],60
same,"Oat, Wild plant response rating",[4]; [30],40
same,"Plant response rating (0 to 100 scale), Oat, Wild",[4]; [31],70
same,"Plant response rating (0 to 100 scale), Oat, Wild",[5]; 31 g ai/ha Preemergence,30
same,"Plant response rating (0 to 100 scale), Oat, Wild",[5]; 125 g ai/ha Preemergence,90
same,"Plant response rating (0 to 100 scale), Wheat",[6]; 31 g ai/ha Preemergence,10
same,"Plant response rating (0 to 100 scale), Wheat",[6]; 125 g ai/ha Preemergence,90
same,"Plant response rating (0 to 100 scale), Foxtail, Giant",[7]; 31 g ai/ha Preemergence,100
same,"Plant response rating (0 to 100 scale), Foxtail, Giant",[7]; 125 g ai/ha Preemergence,100
same,"Plant response rating (0 to 100 scale), Corn",[8]; 31 g ai/ha Preemergence,20
same,"Plant response rating (0 to 100 scale), Corn",[8]; 125 g ai/ha Preemergence,90
same,Ragweed plant response rating,[9]; [30],80
same,"Plant response rating (0 to 100 scale), Ragweed",[9]; [31],90
same,"Plant response rating (0 to 100 scale), Pigweed, Palmer",[10]; 31 g ai/ha Preemergence,100
same,"Plant response rating (0 to 100 scale), Pigweed, Palmer",[10]; 125 g ai/ha Preemergence,100
same,"Plant response rating (0 to 100 scale), Ragweed",[11]; 31 g ai/ha Preemergence,40
same,"Plant response rating (0 to 100 scale), Ragweed",[11]; 125 g ai/ha Preemergence,80
same,Blackgrass plant response rating,[12],40
same,"Pigweed, Palmer plant response rating",[13]; [30],30
same,"Plant response rating (0 to 100 scale), Pigweed, Palmer",[13]; [31],70
same,"Plant response rating, Sedge, Umbrella",[14],98
same,Wheat plant response rating,[15]; [30],10
same,"Plant response rating (0 to 100 scale), Wheat",[15]; [31],50
same,"Plant response rating (0 to 100 scale), Soybean",[16]; 31 g ai/ha Preemergence,0
same,"Plant response rating (0 to 100 scale), Soybean",[16]; 125 g ai/ha Preemergence,60
same,"Plant response rating (0 to 100 scale), Kochia",[17]; 31 g ai/ha Preemergence,60
same,"Plant response rating (0 to 100 scale), Kochia",[17]; 125 g ai/ha Preemergence,90
same,"Plant response rating (0 to 100 scale), Blackgrass",[18],80
same,Horseweed plant response rating,[19]; [30],60
same,"Plant response rating (0 to 100 scale), Horseweed",[19]; [31],90
same,"Plant response rating (0 to 100 scale), Goosegrass",[20]; 31 g ai/ha Preemergence,90
same,"Plant response rating (0 to 100 scale), Goosegrass",[20]; 125 g ai/ha Preemergence,100
same,"Plant response rating, Barnyardgrass",[21],95
same,Kochia plant response rating,[22]; [30],70
same,"Plant response rating (0 to 100 scale), Kochia",[22]; [31],80
same,"Plant response rating (0 to 100 scale), Blackgrass",[23]; 31 g ai/ha Preemergence,10
same,"Plant response rating (0 to 100 scale), Blackgrass",[23]; 125 g ai/ha Preemergence,80
same,"Plant response rating, Rice",[24],85
same,Corn plant response rating,[25]; [30],90
same,"Plant response rating (0 to 100 scale), Corn",[25]; [31],90
same,"Plant response rating (0 to 100 scale), Ryegrass, Italian",[26]; 31 g ai/ha Preemergence,70
same,"Plant response rating (0 to 100 scale), Ryegrass, Italian",[26]; 125 g ai/ha Preemergence,100
same,"Plant response rating, Ducksalad",[27],98
same,Goosegrass plant response rating,[28]; [30],90
same,"Plant response rating (0 to 100 scale), Goosegrass",[28]; [31],90
same,"Ryegrass, Italian plant response rating",[29]; [30],50
same,"Plant response rating (0 to 100 scale), Ryegrass, Italian",[29]; [31],100
